The values below come from patent US7074789B2, “Kinase inhibitors” (Amgen Inc., priority 1999, dated 2006).

Format in all cases: biochemical
One assay has as its target T1, AKT (Homo sapiens, UniProt Q9Y243).
T1 construct: Kinases are expressed as either kinase domains or full length constructs; made in house
The experiment in a line: Kinase inhibition assay (33P transfer), AKT. The settings on record: Table 2, kinase inhibition class; read-out: AKT3-1. The method in brief: (§1)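 Measured by scintillation: radiolabelled phosphate added by tagged recombinant kinases to poly(Glu,Tyr) 4:1 or poly(Arg,Ser) 3:1 attached to microtiter wells, counted once free label was washed away with 0.5% phosphoric acid.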

For another assay, the target named is T2, EGFR (Homo sapiens, UniProt P00533).
T2 construct: Kinases are expressed as either kinase domains or full length constructs; made in house
T2 sequence (P00533 25-1210, species assumed): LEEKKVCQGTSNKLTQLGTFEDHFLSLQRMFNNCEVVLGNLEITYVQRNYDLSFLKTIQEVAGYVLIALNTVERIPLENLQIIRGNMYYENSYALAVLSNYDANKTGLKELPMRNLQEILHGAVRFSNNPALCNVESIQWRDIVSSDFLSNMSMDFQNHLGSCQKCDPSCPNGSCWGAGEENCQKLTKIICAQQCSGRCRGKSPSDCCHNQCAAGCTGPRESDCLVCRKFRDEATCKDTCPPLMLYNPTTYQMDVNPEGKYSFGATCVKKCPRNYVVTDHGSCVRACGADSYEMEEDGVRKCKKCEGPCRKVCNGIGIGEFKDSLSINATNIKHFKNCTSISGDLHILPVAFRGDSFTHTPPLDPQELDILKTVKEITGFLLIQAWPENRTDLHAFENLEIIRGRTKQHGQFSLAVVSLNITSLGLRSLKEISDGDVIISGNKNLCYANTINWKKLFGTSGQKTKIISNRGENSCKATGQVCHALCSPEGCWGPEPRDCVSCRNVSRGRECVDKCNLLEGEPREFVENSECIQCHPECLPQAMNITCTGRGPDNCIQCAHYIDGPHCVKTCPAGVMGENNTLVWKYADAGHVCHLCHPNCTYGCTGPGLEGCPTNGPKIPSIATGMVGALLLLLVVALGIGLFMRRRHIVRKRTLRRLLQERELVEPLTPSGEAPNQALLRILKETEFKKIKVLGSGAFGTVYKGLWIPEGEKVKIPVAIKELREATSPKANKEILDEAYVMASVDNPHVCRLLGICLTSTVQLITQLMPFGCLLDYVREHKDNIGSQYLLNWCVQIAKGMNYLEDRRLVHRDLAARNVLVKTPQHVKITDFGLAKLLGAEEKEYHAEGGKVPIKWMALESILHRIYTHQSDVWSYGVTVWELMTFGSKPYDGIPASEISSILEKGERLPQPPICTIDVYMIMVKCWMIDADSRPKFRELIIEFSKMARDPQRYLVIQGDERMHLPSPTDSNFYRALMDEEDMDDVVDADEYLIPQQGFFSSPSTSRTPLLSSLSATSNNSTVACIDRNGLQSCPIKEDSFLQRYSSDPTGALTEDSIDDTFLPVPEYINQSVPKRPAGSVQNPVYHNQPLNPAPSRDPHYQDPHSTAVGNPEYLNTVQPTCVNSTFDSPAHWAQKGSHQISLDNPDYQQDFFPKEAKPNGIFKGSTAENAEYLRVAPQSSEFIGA
The experiment in a line: Kinase inhibition assay (33P transfer), EGFR. Particulars: Table 2, kinase inhibition class; read-out: EGFR-1. A digest of the protocol:
(§2)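 Each enzyme, purified to near homogeneity by affinity chromatography, was incubated with ATP carrying 33P and a substrate polymer fixed to the plate. Unbound label was removed with dilute phosphoric acid (0.5%) before adding scintillant and counting. Potency is given as the compound level cutting label uptake by 50%.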

A further assay addresses T3, Itk (Homo sapiens, UniProt Q08881).
T3 construct: Kinases are expressed as either kinase domains or full length constructs; made in house
T3 sequence (Q08881 1-620): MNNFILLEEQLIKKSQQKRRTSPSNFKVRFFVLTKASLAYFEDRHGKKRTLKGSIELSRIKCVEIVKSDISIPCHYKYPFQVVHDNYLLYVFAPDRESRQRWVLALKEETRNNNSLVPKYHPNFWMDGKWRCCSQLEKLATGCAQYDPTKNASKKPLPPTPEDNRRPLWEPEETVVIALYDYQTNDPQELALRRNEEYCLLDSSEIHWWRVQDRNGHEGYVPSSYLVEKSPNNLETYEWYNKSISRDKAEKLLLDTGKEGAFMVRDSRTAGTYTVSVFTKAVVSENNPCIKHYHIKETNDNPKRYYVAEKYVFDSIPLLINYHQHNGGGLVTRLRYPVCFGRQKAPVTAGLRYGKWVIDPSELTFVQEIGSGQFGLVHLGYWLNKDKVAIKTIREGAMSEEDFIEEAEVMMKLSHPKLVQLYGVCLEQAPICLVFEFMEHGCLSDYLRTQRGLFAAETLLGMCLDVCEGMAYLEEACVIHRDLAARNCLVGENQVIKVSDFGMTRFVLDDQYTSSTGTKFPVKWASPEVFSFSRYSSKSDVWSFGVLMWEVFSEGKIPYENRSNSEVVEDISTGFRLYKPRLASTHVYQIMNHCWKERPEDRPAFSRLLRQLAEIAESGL
In words: Kinase inhibition assay (33P transfer), Itk. Particulars: read-out: Itk-1. A digest of the protocol: as §2

A further assay concerns the target T4, ErbB2 (Homo sapiens, UniProt P04626).
T4 construct: Kinases are expressed as either kinase domains or full length constructs; made in house
In words: Kinase inhibition assay (33P transfer), ErbB2. Particulars: read-out: ErbB2-2. The method in brief:
as §2

The next assay addresses T5, Zap-70 (Homo sapiens, UniProt P43403).
T5 construct: Kinases are expressed as either kinase domains or full length constructs; made in house
T5 sequence (P43403 1-619): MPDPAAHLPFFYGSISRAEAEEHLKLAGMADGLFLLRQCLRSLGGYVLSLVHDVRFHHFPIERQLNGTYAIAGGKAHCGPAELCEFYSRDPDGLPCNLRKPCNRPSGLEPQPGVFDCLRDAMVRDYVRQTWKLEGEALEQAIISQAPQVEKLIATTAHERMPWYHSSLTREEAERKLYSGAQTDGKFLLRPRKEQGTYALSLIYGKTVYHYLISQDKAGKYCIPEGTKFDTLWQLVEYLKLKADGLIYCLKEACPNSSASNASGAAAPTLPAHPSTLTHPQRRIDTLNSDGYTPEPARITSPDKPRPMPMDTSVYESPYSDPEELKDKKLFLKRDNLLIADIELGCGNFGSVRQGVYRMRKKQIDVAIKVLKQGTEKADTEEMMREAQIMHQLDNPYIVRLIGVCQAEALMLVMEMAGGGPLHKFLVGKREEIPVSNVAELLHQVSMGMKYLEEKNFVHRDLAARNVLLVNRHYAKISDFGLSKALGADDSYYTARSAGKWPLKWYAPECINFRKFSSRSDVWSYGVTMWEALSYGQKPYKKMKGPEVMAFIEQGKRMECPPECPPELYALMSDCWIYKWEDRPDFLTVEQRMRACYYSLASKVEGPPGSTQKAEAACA
The experiment in a line: Kinase inhibition assay (33P transfer), Zap-70. The settings on record: read-out: Zap-1. A digest of the protocol:
as §1

Another assay deals with T6, Lck (Homo sapiens, UniProt P06239).
T6 construct: Kinases are expressed as either kinase domains or full length constructs; made in house
T6 sequence (P06239 whole entry, species assumed, the tested form may be a part): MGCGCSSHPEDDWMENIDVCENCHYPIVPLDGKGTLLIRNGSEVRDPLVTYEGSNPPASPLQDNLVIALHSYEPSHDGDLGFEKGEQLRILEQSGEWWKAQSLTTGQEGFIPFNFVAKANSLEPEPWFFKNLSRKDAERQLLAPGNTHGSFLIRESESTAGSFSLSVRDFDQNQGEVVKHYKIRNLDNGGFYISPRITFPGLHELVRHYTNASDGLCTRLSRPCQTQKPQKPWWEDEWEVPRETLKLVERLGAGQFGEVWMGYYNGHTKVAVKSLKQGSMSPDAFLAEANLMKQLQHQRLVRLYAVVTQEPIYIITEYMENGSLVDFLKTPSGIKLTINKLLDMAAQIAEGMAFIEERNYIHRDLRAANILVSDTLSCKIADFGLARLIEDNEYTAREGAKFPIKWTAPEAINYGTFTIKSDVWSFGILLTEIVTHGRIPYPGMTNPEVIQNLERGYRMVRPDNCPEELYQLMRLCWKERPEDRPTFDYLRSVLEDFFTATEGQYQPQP
In words: Kinase inhibition assay (33P transfer), Lck. Particulars: read-out: Lck-1. A digest of the protocol:
as §1

For a further assay, the target named is T7, c-Met (Homo sapiens, UniProt P08581).
T7 construct: Kinases are expressed as either kinase domains or full length constructs; made in house
T7 sequence (P08581 25-1390): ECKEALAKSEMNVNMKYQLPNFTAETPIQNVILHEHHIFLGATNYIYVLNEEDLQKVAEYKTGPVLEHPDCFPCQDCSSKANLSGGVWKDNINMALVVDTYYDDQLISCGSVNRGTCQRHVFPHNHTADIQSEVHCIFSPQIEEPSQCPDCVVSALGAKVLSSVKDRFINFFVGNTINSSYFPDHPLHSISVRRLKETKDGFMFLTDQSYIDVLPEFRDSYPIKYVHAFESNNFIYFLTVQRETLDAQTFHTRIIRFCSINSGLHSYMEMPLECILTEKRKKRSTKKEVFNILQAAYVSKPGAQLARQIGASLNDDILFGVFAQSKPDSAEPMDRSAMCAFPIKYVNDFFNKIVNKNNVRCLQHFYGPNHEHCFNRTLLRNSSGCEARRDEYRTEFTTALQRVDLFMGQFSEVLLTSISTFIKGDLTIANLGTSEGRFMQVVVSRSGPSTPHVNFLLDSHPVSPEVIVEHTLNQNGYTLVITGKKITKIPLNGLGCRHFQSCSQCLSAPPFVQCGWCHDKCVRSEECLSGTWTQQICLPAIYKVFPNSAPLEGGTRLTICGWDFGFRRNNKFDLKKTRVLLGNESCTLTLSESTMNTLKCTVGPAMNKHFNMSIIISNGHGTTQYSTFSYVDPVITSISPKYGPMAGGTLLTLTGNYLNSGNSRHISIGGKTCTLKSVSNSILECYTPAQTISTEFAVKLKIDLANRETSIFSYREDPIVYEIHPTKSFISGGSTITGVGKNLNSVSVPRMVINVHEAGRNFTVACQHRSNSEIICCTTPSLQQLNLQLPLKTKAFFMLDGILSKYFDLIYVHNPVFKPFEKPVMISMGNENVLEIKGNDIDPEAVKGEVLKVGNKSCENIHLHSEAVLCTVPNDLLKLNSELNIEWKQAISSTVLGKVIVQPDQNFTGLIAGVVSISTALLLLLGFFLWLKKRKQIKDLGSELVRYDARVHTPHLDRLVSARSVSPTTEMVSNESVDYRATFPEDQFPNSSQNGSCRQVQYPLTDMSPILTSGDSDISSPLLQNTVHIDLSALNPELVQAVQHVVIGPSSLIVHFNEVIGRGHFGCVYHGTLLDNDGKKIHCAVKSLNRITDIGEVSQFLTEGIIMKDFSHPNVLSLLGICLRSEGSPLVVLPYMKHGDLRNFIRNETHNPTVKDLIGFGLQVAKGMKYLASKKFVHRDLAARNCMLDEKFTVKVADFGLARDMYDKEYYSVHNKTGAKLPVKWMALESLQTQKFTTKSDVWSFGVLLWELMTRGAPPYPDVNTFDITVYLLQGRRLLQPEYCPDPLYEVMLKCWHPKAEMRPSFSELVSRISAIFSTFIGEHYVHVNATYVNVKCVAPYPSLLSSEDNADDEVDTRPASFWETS
In words: Kinase inhibition assay (33P transfer), c-Met. The settings on record: Table 2, kinase inhibition class; read-out: Met-1. A digest of the protocol:
as §2

For a further assay, the target named is T8, IGFR-1 (Homo sapiens, UniProt P08069).
T8 construct: Kinases are expressed as either kinase domains or full length constructs; made in house
In words: Kinase inhibition assay, IGFR-1 (Table 2). Particulars: Table 2, kinase inhibition class.

A further assay concerns the target T9, PDGFRB (Homo sapiens, UniProt P09619).
T9 construct: Kinases are expressed as either kinase domains or full length constructs; made in house
In words: Kinase inhibition assay (33P transfer), PDGFRB. The settings on record: read-out: PDGFRB-1.

The target of another assay is T10, Kdr (Homo sapiens, UniProt P35968).
T10 construct: Kinases are expressed as either kinase domains or full length constructs; made in house
T10 sequence (P35968 20-1356, species assumed): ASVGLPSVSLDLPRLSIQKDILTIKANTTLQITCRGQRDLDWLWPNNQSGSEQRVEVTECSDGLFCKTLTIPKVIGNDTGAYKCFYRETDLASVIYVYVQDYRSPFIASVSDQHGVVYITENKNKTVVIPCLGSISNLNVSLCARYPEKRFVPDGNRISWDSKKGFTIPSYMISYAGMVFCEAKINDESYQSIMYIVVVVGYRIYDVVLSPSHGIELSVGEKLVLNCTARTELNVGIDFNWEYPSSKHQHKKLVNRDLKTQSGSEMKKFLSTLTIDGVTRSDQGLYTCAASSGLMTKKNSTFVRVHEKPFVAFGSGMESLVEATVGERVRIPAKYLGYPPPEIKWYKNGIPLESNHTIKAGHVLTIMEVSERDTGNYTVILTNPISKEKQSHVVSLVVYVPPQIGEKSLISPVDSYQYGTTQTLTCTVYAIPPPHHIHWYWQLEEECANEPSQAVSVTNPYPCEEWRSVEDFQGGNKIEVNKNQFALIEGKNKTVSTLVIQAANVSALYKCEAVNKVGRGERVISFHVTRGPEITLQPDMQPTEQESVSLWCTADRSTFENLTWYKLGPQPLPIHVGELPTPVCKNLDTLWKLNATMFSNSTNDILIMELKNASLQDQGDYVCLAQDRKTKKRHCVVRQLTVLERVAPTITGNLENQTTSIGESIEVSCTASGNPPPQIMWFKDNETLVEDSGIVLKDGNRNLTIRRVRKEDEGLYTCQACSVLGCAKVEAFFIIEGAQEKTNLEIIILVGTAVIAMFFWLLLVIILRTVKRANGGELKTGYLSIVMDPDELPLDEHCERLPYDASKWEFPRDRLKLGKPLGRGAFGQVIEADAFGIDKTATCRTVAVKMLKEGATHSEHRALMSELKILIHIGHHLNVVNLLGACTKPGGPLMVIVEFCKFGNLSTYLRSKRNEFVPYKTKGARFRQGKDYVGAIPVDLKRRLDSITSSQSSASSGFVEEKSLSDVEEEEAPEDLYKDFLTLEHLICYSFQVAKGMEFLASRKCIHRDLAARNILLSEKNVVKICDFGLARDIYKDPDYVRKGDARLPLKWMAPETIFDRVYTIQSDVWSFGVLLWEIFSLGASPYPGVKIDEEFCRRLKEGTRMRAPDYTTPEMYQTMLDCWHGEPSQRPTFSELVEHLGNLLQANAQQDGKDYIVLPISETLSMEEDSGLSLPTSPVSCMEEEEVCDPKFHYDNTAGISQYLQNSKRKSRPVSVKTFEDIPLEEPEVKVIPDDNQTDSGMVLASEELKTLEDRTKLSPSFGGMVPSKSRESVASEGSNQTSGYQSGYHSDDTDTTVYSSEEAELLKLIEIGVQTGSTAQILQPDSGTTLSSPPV
The experiment in a line: Kinase inhibition assay (33P transfer), Kdr. Particulars: read-out: KDR-1. The method in brief: as §1

Structures are written as SMILES.

T1 sequence (Q9Y243 whole entry, the tested form may be a part): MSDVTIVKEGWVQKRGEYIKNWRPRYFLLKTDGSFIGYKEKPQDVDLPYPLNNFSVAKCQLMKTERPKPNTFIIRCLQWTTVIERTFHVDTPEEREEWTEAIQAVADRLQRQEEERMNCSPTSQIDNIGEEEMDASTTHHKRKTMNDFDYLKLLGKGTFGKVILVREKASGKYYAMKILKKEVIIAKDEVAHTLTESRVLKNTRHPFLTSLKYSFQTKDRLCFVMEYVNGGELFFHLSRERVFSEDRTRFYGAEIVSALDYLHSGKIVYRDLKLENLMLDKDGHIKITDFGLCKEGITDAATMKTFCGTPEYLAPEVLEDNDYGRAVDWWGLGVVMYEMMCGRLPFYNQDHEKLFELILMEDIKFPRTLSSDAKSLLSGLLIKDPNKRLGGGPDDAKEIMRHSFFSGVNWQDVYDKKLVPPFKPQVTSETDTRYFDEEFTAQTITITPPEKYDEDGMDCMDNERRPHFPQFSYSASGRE

`COc1ccc(CNc2nc3ccccc3n2-c2ncnc(Nc3cccc(Cc4nnn[nH]4)c3)n2)cc1` [Compound 959]: the IC50 fell in the range of 0.791 to 4.75 µM on AKT; 0.791 to 4.75 µM at EGFR; 0.791 to 4.75 µM at Itk; 4.75 to 6.92 µM on ErbB2; 0.791 to 4.75 µM at Zap-70; 0.791 to 4.75 µM on Lck. Moreover, the IC50 at c-Met is 0.791 to 4.75 µM; against IGFR-1, 0.791 to 4.75 µM; on PDGFRB it was 0.791 to 4.75 µM; at Kdr it was under 0.791 µM.

As for `COC(=O)c1ccc(-c2cc(Nc3ncnc(Nc4ccc(CO)cc4)n3)[nH]n2)cc1` [Compound 989], the IC50 on AKT is over 10.8 µM; on EGFR, 0.958 to 5.75 µM; on Itk it was 8.38 to 10.8 µM; on ErbB2, over 10.8 µM; at Zap-70 it was over 10.8 µM; on Lck, over 10.8 µM. For the same compound, the IC50 on c-Met was 8.38 to 10.8 µM; on IGFR-1, 8.38 to 10.8 µM; on PDGFRB it was over 10.8 µM; on Kdr, 8.38 to 10.8 µM.

For the compound `COC(=O)c1ccc(-c2cc(Nc3ncnc(Nc4cccc(C(N)=O)c4)n3)[nH]n2)cc1` [Compound 990], the IC50 at AKT was over 10.5 µM; at EGFR, over 10.5 µM; at Itk, 5.58 to 8.13 µM; at ErbB2, over 10.5 µM; at Zap-70, over 10.5 µM; on Lck it was over 10.5 µM. Besides, the IC50 at c-Met is 5.58 to 8.13 µM; against IGFR-1 it was 0.929 to 5.58 µM; at PDGFRB it was over 10.5 µM; at Kdr, over 10.5 µM.

For the compound `C=CCNC(=O)c1ccc(-c2cc(Nc3ncnc(Nc4cc(OC)c(OC)c(OC)c4)n3)[nH]n2)cc1` [Compound 1005], the IC50 at AKT is over 8.95 µM; at EGFR it was over 8.95 µM; at Itk, over 8.95 µM; at ErbB2, over 8.95 µM; at Zap-70 it was over 8.95 µM; at Lck it was 6.96 to 8.95 µM. The IC50 at c-Met is 4.78 to 6.96 µM; at IGFR-1 it was 0.796 to 4.78 µM; on PDGFRB, over 8.95 µM; at Kdr, over 8.95 µM.

Regarding `COc1cc(Nc2ncnc(Nc3cc(-c4ccc(C(=O)NCCc5ccccc5)cc4)n[nH]3)n2)cc(OC)c1OC` [Compound 1006], the IC50 on AKT was over 7.94 µM; on EGFR, over 7.94 µM; at Itk, 4.24 to 6.18 µM; at ErbB2, 4.24 to 6.18 µM; at Zap-70 it was over 7.94 µM; at Lck, 0.706 to 4.24 µM. The IC50 at c-Met is under 0.706 µM; at IGFR-1 it was under 0.706 µM; at PDGFRB it was over 7.94 µM; on Kdr it was over 7.94 µM.

As to `CC(C)(C)c1cc(Nc2ncnc(Nc3cccc(Cl)c3)n2)[nH]n1` [Compound 1007], the IC50 is over 13.1 µM on AKT; under 1.16 µM at EGFR; 1.16 to 6.98 µM at Itk; 1.16 to 6.98 µM on ErbB2; over 13.1 µM on Zap-70; 1.16 to 6.98 µM at Lck. The IC50 was 1.16 to 6.98 µM at c-Met, under 1.16 µM on IGFR-1, over 13.1 µM on PDGFRB and 1.16 to 6.98 µM at Kdr.

As to `Clc1cccc(Nc2ncnc(Nc3cc(-c4ccccc4)n[nH]3)n2)c1` [Compound 1009], the IC50 at AKT was over 12.4 µM; at EGFR, under 1.1 µM; on Itk it was 1.1 to 6.6 µM; on ErbB2, over 12.4 µM; at Zap-70, over 12.4 µM; on Lck, over 12.4 µM. Also, the IC50 is over 12.4 µM at c-Met, under 1.1 µM against IGFR-1, 9.62 to 12.4 µM on PDGFRB and over 12.4 µM on Kdr.

Consider `COc1cccc(Nc2ncnc(Nc3cc(-c4ccccc4)n[nH]3)n2)c1` [Compound 1011], for which the IC50 was 1.11 to 6.68 µM at AKT; 1.11 to 6.68 µM at EGFR; 1.11 to 6.68 µM on Itk; 1.11 to 6.68 µM on ErbB2; over 12.5 µM at Zap-70; 1.11 to 6.68 µM on Lck. The IC50 on c-Met was 1.11 to 6.68 µM; at IGFR-1 it was under 1.11 µM; at PDGFRB, 1.11 to 6.68 µM; at Kdr, 1.11 to 6.68 µM.

Take `Cc1cccc(Nc2ncnc(Nc3cc(-c4ccccc4)n[nH]3)n2)c1` [Compound 1012]: the IC50 at AKT was 1.16 to 6.99 µM; at EGFR, under 1.16 µM; at Itk, 1.16 to 6.99 µM; at ErbB2, 6.99 to 10.2 µM; on Zap-70, 10.2 to 13.1 µM; on Lck it was 1.16 to 6.99 µM. Besides, the IC50 on c-Met was 1.16 to 6.99 µM; at IGFR-1, under 1.16 µM; at PDGFRB it was 1.16 to 6.99 µM; on Kdr, 1.16 to 6.99 µM.

As for `COc1cc(Nc2ncnc(-n3c(NC4CCCc5ccccc54)nc4ccccc43)n2)cc(OC)c1OC` (centres unmarked) [Compound 1043], the IC50 was over 8.59 µM at AKT; 6.68 to 8.59 µM on EGFR; over 8.59 µM at Itk; 0.764 to 4.58 µM at ErbB2; over 8.59 µM on Zap-70; 4.58 to 6.68 µM at Lck. In addition, the IC50 was over 8.59 µM on c-Met, 6.68 to 8.59 µM against IGFR-1, 4.58 to 6.68 µM on PDGFRB and 0.764 to 4.58 µM on Kdr.

As for `COc1cc(Nc2ncnc(-n3c(NC4CCc5ccccc54)nc4ccccc43)n2)cc(OC)c1OC` (centres unmarked) [Compound 1044], the IC50 was over 8.83 µM on AKT; 4.71 to 6.87 µM at EGFR; over 8.83 µM on Itk; 0.785 to 4.71 µM on ErbB2; over 8.83 µM at Zap-70; 4.71 to 6.87 µM on Lck. The IC50 at c-Met was over 8.83 µM; at IGFR-1, over 8.83 µM; at PDGFRB, 6.87 to 8.83 µM; at Kdr, 0.785 to 4.71 µM.

As for `COc1ccc([C@@H](C)Nc2nc3ccccc3n2-c2ncnc(Nc3cc(OC)c(OC)c(OC)c3)n2)cc1` [Compound 1045], the IC50 on AKT was over 8.53 µM; on EGFR, over 8.53 µM; on Itk, over 8.53 µM; at ErbB2, over 8.53 µM; on Zap-70 it was over 8.53 µM; on Lck, 0.758 to 4.55 µM. For the same compound, the IC50 at c-Met was over 8.53 µM; against IGFR-1 it was over 8.53 µM; on PDGFRB, 0.758 to 4.55 µM; on Kdr, 0.758 to 4.55 µM.

`COc1ccc([C@H](C)Nc2nc3ccccc3n2-c2ncnc(Nc3cc(OC)c(OC)c(OC)c3)n2)cc1` [Compound 1046]: the IC50 at AKT, at EGFR, at Itk, on ErbB2, on Zap-70 and on Lck was over 8.53 µM each time. Besides, the IC50 is over 8.53 µM on c-Met, over 8.53 µM at IGFR-1, over 8.53 µM at PDGFRB and under 0.758 µM at Kdr.

Regarding `COc1cc(Nc2ncnc(Nc3cccc(CN4CCN(C)CC4)c3)n2)cc(OC)c1OC` [Compound 1047], the IC50 at AKT, at EGFR, at Itk, on ErbB2, at Zap-70 and at Lck was over 9.67 µM throughout. Also, the IC50 on c-Met, against IGFR-1, on PDGFRB and at Kdr was over 9.67 µM each time.
